# Assay results reported in US5496826A, “Pharmaceutical methods of using heterocyclic derivatives of N-phenylamides” (Bristol-Myers Squibb Company, priority 1994, dated 1996).
# Columns and labels:
# [1] = system: tonic seizure produced by 50 milliamps current through corneal electrodes (hind limb tonic extension); test: Maximum Electroshock Test (MES); type: in vivo, female C57Bl/6 mice; conditions: Mus musculus, ip, 0.5 h; mice, i.p. 30 min before MES; abolition of hind limb tonic extension; read-out: MES Results: median effective dose (ED50)
# Protocol: (§1) The anticonvulsive properties of the compounds of the invention were evaluated using two standard animal models of epilepsy: the maximal electroshock test (MES) and the pentylenetetrazol (PTZ)-induced seizure procedure. Melatonergic action is indicated by binding studies done in hamster hypothalamus tissue.
# 2. Maximum Electroshock Test
# The MES procedure used is based upon the tests disclosed by Swinyard and et al in J. Pharmacol, Expt. Ther., (1952) 106, 319 and L. A. Woodbury et al in Arch. Int. Pharmocodyn, (1952), 92-97. These tests are also described in U.S. Pat. Nos. 5,242,942 and 5,240,937, respectively.
# In the MES procedure, a tonic seizure was produced in female C57Bl/6 mice (17-26 g) by the delivery of a 50 milliamps current through corneal electrodes for 0.2 sec. Before testing, the animals were allowed food and water ad libitum. Compounds were injected i.p. 30 min before the MES. Reference compounds (phenytoin, carbamazepine, phenobarbital, and valproic acid) were tested at the peak of activity and at the dose range reported in the literature. Seven mice were used per group. In this test anticonvulsive activity was indicated by the abolition of the hind limb tonic extension. The median effective dose (ED50) was obtained for each compound and compared to ED50 's of reference compound(s).
# [2] = system: pentylenetetrazol (PTZ)-induced seizures; test: Pentylenetetrazole (PTZ)-Induced Seizure Test; type: in vivo, female C57BI/6 mice; conditions: 50 mg/kg i.p., mice, 30 min before 75 mg/kg PTZ i.p.
# Protocol: as §1
# 1. Pentylenetetrazole--Induced Seizure Test
# The PTZ technique employed was similar to that disclosed in P.C.T. publication WO 93/0572 (PCT/US92/07675), published on Apr. 1, 1993.
# In the PTZ procedure, female C57BI/6 mice (17-26 g) were injected j.p. (vol=0.1 ml/20 g) with test compound or vehicle 30 min before i.p. administration of 75 mg/kg pentylenetetrazol. Multiple doses of reference compounds (ethosuximide, trimethadione, and pentobarbital) were tested at the peak of activity and at the dose range reported in the literature. Ten mice were used per group. After injection, mice were placed in individual observation cages and monitored for one hour. During the first thirty minutes following PTZ injection, seizure activity was recorded by measure: the latency to the onset of pre-convulsive activity (Pre) the latency to the onset of the first clonic seizure longer than five seconds (First) the latency to the onset of the first intense-generalized clonic/tonic seizure (IGS) and the length of survival (Surv Time). During the second thirty-minute period, only time of death was recorded.
# Those compounds that produced a significant delay in the onset of seizure activity or delayed (or abolished) mortality when compared to that produced by vehicle (reference) were classified as anticonvulsants. Significant differences between animals treated with reference or test compounds were determined using the Student's t-test.
SMILES,ED50 [1],First: latency to first seizure [2],Pre: latency to first twitch [2],Surv Time: duration of survival [2],Surv: survival at one hour postPTZ [2],"IGS: onset of intense, generalized seizures [2]"
"CCC(=O)Nc1ccccc1-c1nc2ccccc2[nH]1 [Example 1, N-[2-(1H-benzimidazol-2-yl)phenyl] propanamide]",< 25 mg/kg,–,–,–,–,–
"COCC(=O)Nc1ccccc1-c1nc2ccccc2[nH]1 [Example 2, N-[2-(benzimidazol-2-yl)phenyl] methoxyacetamide]",< 75 mg/kg,–,–,–,–,–
"CNC(=O)Nc1ccccc1-c1nc2ccccc2[nH]1 [Example 10, N-[2-(benzimidazol-2-yl)phenyl]-N'-methyl urea]",< 75 mg/kg,++ (>200% controls),+ (>100% controls),++ (>200% controls),++++ (>400% controls),–
"CC(=O)Nc1ccccc1-c1nc2ccccc2o1 [Example 11, N-[2-(benzoxazol-2-yl)phenyl] acetamide]",< 75 mg/kg,–,–,–,–,–
"CNC(=O)Nc1ccccc1-c1nc2ccccc2o1 [Example 12, N-[2-(benzoxazol-2-yl)phenyl]-N'-methyl urea]",< 100 mg/kg,+++ (>300% controls),+ (>100% controls),++ (>200% controls),++ (>200% controls),+ (>100% controls)
"CC(=O)Nc1ccccc1-c1nc2ccccc2s1 [Example 13, N-[2-(benzthiazol-2-yl)phenyl] acetamide]",< 25 mg/kg,–,–,–,–,–
"COc1ccc2[nH]c(-c3ccccc3NC(C)=O)nc2c1 [Example 15, N-[2-(5-methoxy-1H-benzimidazol-2-yl)phenyl] acetamide]",–,+ (>100% controls),+ (>100% controls),++ (>200% controls),–,–
